# How the values were obtained:
# CT26-induced tumors [1] = test: Tumor histology; conditions: tumor tissue, day 21
# [2] = Blood parameters in colon cancer model
# CT26-induced tumors [3] = test: Colon cancer model, tumor weight and size after 21 days; conditions: intravenous every three days
# [4] = Kidney histology in colon cancer model; conditions: kidney tissue, day 21
# MTT cytotoxicity assay = assay type: cell-based; conditions: human, HFF cells
smiles,measurement,setting,value
"O=c1[nH]cc(F)c(=O)[nH]1 [Free 5FU, 5-Fluorouracil]",Number of Apoptotic Cells (per field of view) ± Standard Deviation,CT26-induced tumors [1],8.0 ± 1.0 per field of view
same,Other Histopathology Changes,CT26-induced tumors [1],Mild necrotic changes and inflammation
same,Percentage of Necrosis ± Standard Deviation,CT26-induced tumors [1],18.0 ± 4.0%
same,Tumor Differentiation Grade (1 to 3) ± Standard Deviation,CT26-induced tumors [1],2.0 ± 0.3
same,Red Blood Cell Count ± SD,[2]; Day 21,4.2 ± 0.3 ×10⁶ cells/µL
same,White Blood Cell Count ± SD,[2]; Day 21,10.0 ± 1.5 ×10³ cells/µL
same,Hemoglobin Level ± SD,"[2]; Day 21, listed as 5-FU",9.0 ± 0.8 g/dL
same,Hemoglobin Level ± SD,"[2]; Day 21, listed as free 5-FU",9.0 g/dL
same,Hemoglobin Level ± SD,[2]; Treatment start,12.8 ± 1.2 g/dL
same,Red Blood Cell Count ± SD,[2]; Treatment start,5.6 ± 0.5 ×10⁶ cells/µL
same,White Blood Cell Count ± SD,[2]; Treatment start,8.3 ± 1.1 ×10³ cells/µL
same,Mean tumor size ± standard deviation,CT26-induced tumors [3],11.0 ± 2.0 mm
same,Mean tumor weight ± standard deviation,CT26-induced tumors [3],0.98 ± 0.36 g
same,renal complications (kidney histology),[4],Most renal complications occurred in this group
same,"viability at 24 h, 0.2 mg/mL",MTT cytotoxicity assay,99.5%
same,"viability at 24 h, 0.5 mg/mL",MTT cytotoxicity assay,87.9%
same,"viability at 24 h, 1 mg/mL",MTT cytotoxicity assay,85.9%
same,"viability at 24 h, 1.5 mg/mL",MTT cytotoxicity assay,75.9%
same,"viability at 24 h, 2 mg/mL",MTT cytotoxicity assay,75.1%
same,"viability at 48 h, 0.2 mg/mL",MTT cytotoxicity assay,104%
same,"viability at 48 h, 0.5 mg/mL",MTT cytotoxicity assay,94.1%
same,"viability at 48 h, 1 mg/mL",MTT cytotoxicity assay,79.4%
same,"viability at 48 h, 1.5 mg/mL",MTT cytotoxicity assay,74.7%
same,"viability at 48 h, 2 mg/mL",MTT cytotoxicity assay,65.1%
